System: TNF-alpha
Experiment: CC-93269-induced TNF-alpha secretion, co-culture of PBMCs and K562-BCMA cells (MSD)
Type: cell-based, human
Details: Compound 1 pre-treatment; 24 hours
Protocol: Co-cultures of PBMCs, target K562-BCMA cells and CC-93269 were prepared as for FIG. 9. At 6-, 24- and 48-hours post-incubation, the cell culture media was collected and levels of TNF-alpha (FIG. 12A) and IL-2 (FIG. 12B) in the supernatant were assessed using an MSD assay. ULOQ = Upper limit of quantification.
Fresh PBMCs were isolated from the blood (buffy coat) of healthy human volunteers by Ficoll based cell separation. The percentage of CD3+ T-cells (total) in the PBMCs was quantified by flow cytometry. The isolated PBMCs were seeded in 12-well plates at a concentration of 1.5×10^6 cells/ml and treated with 1 nM Compound 1 (CC-92480), 1000 nM lenalidomide, 100 nM pomalidomide, 10 nM iberdomide, or control DMSO overnight (~17 hours).
After overnight incubation, target K562-BCMA cells (overexpress surface BCMA at a very high level) or control K562-MCB cells (no BCMA expression) were added to the wells at a ratio of 5:1, T-cells to target cells. K562-BCMA and K562-MCB are an isogenic pair that are derived from a chronic myelogenous leukemia (CML,) cell line. CC-93269 was added to the co-culture at various concentrations and incubated. CC-93269 is an anti-BCMA anti-CD3 bispecific T cell-engaging antibody and is also referred to herein as 42-TCBcv.

N#Cc1ccc(N2CCN(Cc3ccc(COc4cccc5c4CN(C4CCC(=O)NC4=O)C5=O)cc3)CC2)c(F)c1 (stereo not drawn) [Compound 1, 4-(4-(4-(((2-(2,6-dioxopiperidin-3-yl)-1-oxoisoindolin-4-yl)oxy)methyl)benzyl)piperazin-l-yl)-3-fluorobenzonitrile]
CC-93269-induced TNF-alpha secretion from PBMCs with K562 target cells: potentiates

Source: US20230172923A1, “METHODS OF TREATING CYTOKINE-RELATED ADVERSE EVENTS” (BRISTOL-MYERS SQUIBB COMPANY, priority 2020, published 2023)
